Reference: patent US20240208992A1, “MACROCYCLES AS CFTR MODULATORS” (Idorsia Pharmaceuticals Ltd, priority 2021, published 2024)

Target: human F508del-CFTR (Homo sapiens, UniProt P13569, DEL508-508)
Assay: F508del-CFTR cell surface expression (corrector activity), DiscoveRx ß-galactosidase complementation chemiluminescence assay in recombinant U2OS cell line;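 note: U2OS cells co-expressing ProLink-tagged F508del-CFTR and a membrane-anchored enzyme acceptor, where more surface CFTR restores β-galactosidase activity measured by chemiluminescence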
Conditions: for EC50: EC50, F508del-CFTR cell surface expression, U2OS cells, 16h compound incubation, geomean values; for Emax: U2OS, in relation to Emax of corrector lumacaftor (=100%), arithmetic mean values

Chain of human F508del-CFTR (P13569 with tags, fused parts or gaps DEL508-508): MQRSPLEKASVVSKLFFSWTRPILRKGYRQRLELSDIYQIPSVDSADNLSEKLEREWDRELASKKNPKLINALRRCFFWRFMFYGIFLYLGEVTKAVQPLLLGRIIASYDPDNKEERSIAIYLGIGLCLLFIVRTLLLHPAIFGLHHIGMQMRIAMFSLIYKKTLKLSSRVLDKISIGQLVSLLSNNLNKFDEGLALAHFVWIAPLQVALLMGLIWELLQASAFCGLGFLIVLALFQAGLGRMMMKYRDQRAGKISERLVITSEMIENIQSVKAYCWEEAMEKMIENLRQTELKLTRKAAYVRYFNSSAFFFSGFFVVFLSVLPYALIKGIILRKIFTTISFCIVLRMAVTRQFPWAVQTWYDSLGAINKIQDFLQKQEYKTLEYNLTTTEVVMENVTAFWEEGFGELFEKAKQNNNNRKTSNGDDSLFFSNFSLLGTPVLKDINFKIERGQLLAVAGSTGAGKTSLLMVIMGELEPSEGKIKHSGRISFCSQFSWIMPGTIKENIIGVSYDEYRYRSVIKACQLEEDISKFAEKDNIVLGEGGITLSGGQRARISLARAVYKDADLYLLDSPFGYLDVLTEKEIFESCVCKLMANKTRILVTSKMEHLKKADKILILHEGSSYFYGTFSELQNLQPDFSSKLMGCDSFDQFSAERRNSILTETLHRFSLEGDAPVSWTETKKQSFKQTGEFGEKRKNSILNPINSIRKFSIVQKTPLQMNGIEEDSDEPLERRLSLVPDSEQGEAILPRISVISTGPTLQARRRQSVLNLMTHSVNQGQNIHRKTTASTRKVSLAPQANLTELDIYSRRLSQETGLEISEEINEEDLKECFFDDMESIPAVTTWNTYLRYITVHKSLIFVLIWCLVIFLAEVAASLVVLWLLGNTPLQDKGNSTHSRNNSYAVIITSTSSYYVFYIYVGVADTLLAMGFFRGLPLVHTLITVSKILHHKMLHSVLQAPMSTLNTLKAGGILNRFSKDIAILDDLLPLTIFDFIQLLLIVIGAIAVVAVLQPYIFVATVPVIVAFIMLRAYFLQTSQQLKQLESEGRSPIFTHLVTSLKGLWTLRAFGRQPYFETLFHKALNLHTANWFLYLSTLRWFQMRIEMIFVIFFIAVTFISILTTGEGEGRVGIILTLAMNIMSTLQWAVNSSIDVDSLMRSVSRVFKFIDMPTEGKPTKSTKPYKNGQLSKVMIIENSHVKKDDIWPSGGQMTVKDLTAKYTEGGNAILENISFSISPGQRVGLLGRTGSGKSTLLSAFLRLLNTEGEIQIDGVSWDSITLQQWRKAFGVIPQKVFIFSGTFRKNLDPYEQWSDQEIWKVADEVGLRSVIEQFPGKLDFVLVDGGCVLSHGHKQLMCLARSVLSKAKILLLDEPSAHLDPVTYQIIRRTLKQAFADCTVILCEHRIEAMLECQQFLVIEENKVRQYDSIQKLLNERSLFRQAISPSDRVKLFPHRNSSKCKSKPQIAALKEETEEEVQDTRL

Row | SMILES | EC50 [µM] | Emax [%]
1 | Cc1cc(CCNC(=O)[C@@H]2CC(=O)N(C)[C@@H](CC(C)C)C(=O)N3CCN(CC(C)C)C[C@H]3C(=O)N[C@H](Cc3ccccc3)COc3ccc4nc(C)oc4c3C(=O)N2)on1 [Example 621, (8S,12S,18aS,21R)-21-benzyl-12,17-diisobutyl-4,11-dimethyl-N-(2-(3-methylisoxazol-5-yl)ethyl)-6,10,13,19-tetraoxo-6,7,8,9,10,11,12,13,16,17,18,18a,19,20,21,22-hexadecahydro-15H-oxazolo[4′,5′:5,6]benzo[1,2-p]pyrazino[2,1-f][1]oxa[4,7,10,14]tetraazacycloheptadecine-8-carboxamide] | 0.339 | 288
2 | Cc1cc(CCNC(=O)[C@@H]2CC(=O)N(C)[C@@H](CC(C)C)C(=O)N3CCN(CC(C)C)C[C@@H]3C(=O)N[C@H](Cc3ccccc3)COc3cnc4ccccc4c3C(=O)N2)on1 [Example 622, (9S,13S,19aR,22R)-22-benzyl-13,18-diisobutyl-12-methyl-N-(2-(3-methylisoxazol-5-yl)ethyl)-7,11,14,20-tetraoxo-7,8,9,10,11,12,13,14,17,18,19,19a,20,21,22,23-hexadecahydro-16H-pyrazino[2′,1′:6,7][1]oxa[4,7,10,14]tetraazacycloheptadecino[17,16-c]quinoline-9-carboxamide] | 0.199 | 296
3 | Cc1cc(CCNC(=O)[C@@H]2CC(=O)N(C)[C@@H](CC(C)C)C(=O)N3CCN(C(C)C)C[C@@H]3C(=O)N[C@H](Cc3ccccc3)COc3ccc4ccccc4c3C(=O)N2)on1 [Example 623, (4aR,7R,18S,22S)-7-benzyl-22-isobutyl-3-isopropyl-21-methyl-N-(2-(3-methylisoxazol-5-yl)ethyl)-5,16,20,23-tetraoxo-2,3,4,4a,5,6,7,8,16,17,18,19,20,21,22,23-hexadecahydro-1H-naphtho[1,2-p]pyrazino[2,1-f][1]oxa[4,7,10,14]tetraazacycloheptadecine-18-carboxamide] | 0.248 | 349
4 | Cc1nc2ccc3c(c2o1)C(=O)N[C@H](C(=O)NCCc1cccc(OC(F)F)c1)CC(=O)N(C)[C@@H](CC(C)C)C(=O)N1CCOC[C@@H]1C(=O)N[C@H](Cc1ccccc1)CO3 [Example 625] | 0.781 | 186
5 | CC(C)C[C@H]1C(=O)N(CCCc2ccccc2)CC(=O)N[C@H](Cc2ccccc2)COc2ccc3ccccc3c2C(=O)N[C@H](C(=O)NCCc2ccc3c(c2)OCO3)CC(=O)N1C [Example 626, (3S,7S,13R)-N-(2-(benzo[d][1,3]dioxol-5-yl)ethyl)-13-benzyl-7-isobutyl-6-methyl-1,5,8,11-tetraoxo-9-(3-phenylpropyl)-1,2,3,4,5,6,7,8,9,10,11,12,13,14-tetradecahydronaphtho[1,2-p][1]oxa[4,7,10,14]tetraazacycloheptadecine-3-carboxamide] | 0.163 | 253
6 | CC(C)C[C@H]1C(=O)N2CCOC[C@@H]2C(=O)N[C@H](Cc2ccccc2)COc2cnc3c(F)cccc3c2C(=O)N[C@H](C(=O)NCCc2ccc3c(c2)OCCO3)CC(=O)N1C [Example 627, (9S,13S,19aR,22R)-22-benzyl-N-(2-(2,3-dihydrobenzo[b][1,4]dioxin-6-yl)ethyl)-3-fluoro-13-isobutyl-12-methyl-7,11,14,20-tetraoxo-7,8,9,10,11,12,13,14,16,17,19,19a,20,21,22,23-hexadecahydro-[1,4]oxazino[3′,4′:6,7][1]oxa[4,7,10,14]tetraazacycloheptadecino[17,16-c]quinoline-9-carboxamide] | 0.786 | 395
7 | COc1cccc(CCNC(=O)[C@@H]2CC(=O)N(C)[C@@H](CC(C)C)C(=O)N(C)C3(CC3)C(=O)N[C@H](Cc3ccccc3)COc3ccc4nc(C)oc4c3C(=O)N2)c1 [Example 628, (8′R,14′S,18′S)-8′-benzyl-14′-isobutyl-N-(3-methoxyphenethyl)-2′,12′,15′-trimethyl-10′,13′,16′,20′-tetraoxo-7′,8′,9′,10′,13′,14′,15′,16′,17′,18′,19′,20′-dodecahydro-12′H-spiro[cyclopropane-1,11′-oxazolo[4′,5′:5,6]benzo[1,2-p][1]oxa[4,7,10,14]tetraazacycloheptadecine]-18′-carboxamide] | 0.363 | 355
8 | Cc1cc(CCNC(=O)[C@@H]2CC(=O)N(C)[C@@H](CC(C)C)C(=O)N3CCCC[C@@H]3C(=O)N[C@H](Cc3ccccc3)COc3ccc4c(C)noc4c3C(=O)N2)on1 [Example 629, (8S,12S,18aR,21R)-21-benzyl-12-isobutyl-3,11-dimethyl-N-(2-(3-methylisoxazol-5-yl)ethyl)-6,10,13,19-tetraoxo-6,7,8,9,10,11,12,13,16,17,18,18a,19,20,21,22-hexadecahydro-15H-isoxazolo[4′,5′:5,6]benzo[1,2-p]pyrido[2,1-f][1]oxa[4,7,10,14]tetraazacycloheptadecine-8-carboxamide] | 0.521 | 215
9 | Cc1cc(CCNC(=O)[C@@H]2CC(=O)N(C)[C@@H](CC3CCCC3)C(=O)N3CCCC[C@@H]3C(=O)N[C@H](Cc3ccccc3)COc3ccc4c(C)noc4c3C(=O)N2)on1 [Example 630, (8S,12S,18aR,21R)-21-benzyl-12-(cyclopentylmethyl)-3,11-dimethyl-N-(2-(3-methylisoxazol-5-yl)ethyl)-6,10,13,19-tetraoxo-6,7,8,9,10,11,12,13,16,17,18,18a,19,20,21,22-hexadecahydro-15H-isoxazolo[4′,5′:5,6]benzo[1,2-p]pyrido[2,1-f][1]oxa[4,7,10,14]tetraazacycloheptadecine-8-carboxamide] | 0.261 | 175
10 | Cc1cc(CCNC(=O)[C@@H]2CC(=O)N(C)[C@@H](CC3CCCC3)C(=O)N3CCCC[C@H]3C(=O)N[C@H](Cc3ccccc3)COc3ccc4c(C)noc4c3C(=O)N2)on1 [Example 631, (8S,12S,18aS,21R)-21-benzyl-12-(cyclopentylmethyl)-3,11-dimethyl-N-(2-(3-methylisoxazol-5-yl)ethyl)-6,10,13,19-tetraoxo-6,7,8,9,10,11,12,13,16,17,18,18a,19,20,21,22-hexadecahydro-15H-isoxazolo[4′,5′:5,6]benzo[1,2-p]pyrido[2,1-f][1]oxa[4,7,10,14]tetraazacycloheptadecine-8-carboxamide] | 0.898 | 133
11 | Cc1cc(CCNC(=O)[C@@H]2CC(=O)N(C)[C@@H](CC(C)C)C(=O)N3CCCC[C@@H]3C(=O)N[C@H](Cc3ccccc3)COc3ccc4nc(C)oc4c3C(=O)N2)on1 [Example 632, (8S,12S,18aR,21R)-21-benzyl-12-isobutyl-4,11-dimethyl-N-(2-(3-methylisoxazol-5-yl)ethyl)-6,10,13,19-tetraoxo-6,7,8,9,10,11,12,13,16,17,18,18a,19,20,21,22-hexadecahydro-15H-oxazolo[4′,5′:5,6]benzo[1,2-p]pyrido[2,1-f][1]oxa[4,7,10,14]tetraazacycloheptadecine-8-carboxamide] | 0.927 | 326
12 | CO[C@H]1C[C@]2(C1)C(=O)N[C@H](Cc1ccccc1)COc1ccc3ccccc3c1C(=O)N[C@H](C(=O)NCCc1cc(C)no1)CC(=O)N(C)[C@@H](CC(C)C)C(=O)N2C [Example 633, (1r,3S,3′S,7′S,13′R)-13′-benzyl-7′-isobutyl-3-methoxy-6′,9′-dimethyl-N-(2-(3-methylisoxazol-5-yl)ethyl)-1′,5′,8′,11′-tetraoxo-2′,3′,4′,5′,6′,7′,8′,9′,11′,12′,13′,14′-dodecahydro-1′H-spiro[cyclobutane-1,10′-naphtho[1,2-p][1]oxa[4,7,10,14]tetraazacycloheptadecine]-3′-carboxamide] | 0.652 | 316
13 | Cc1noc2c3c(ccc12)OC[C@@H](Cc1ccccc1)NC(=O)[C@H]1CCCCN1C(=O)[C@H](CC(C)C)N(C)C(=O)C[C@@H](C(=O)NCCc1c(F)cccc1F)NC3=O [Example 634, (8S,12S,18aR,21R)-21-benzyl-N-(2,6-difluorophenethyl)-12-isobutyl-3,11-dimethyl-6,10,13,19-tetraoxo-6,7,8,9,10,11,12,13,16,17,18,18a,19,20,21,22-hexadecahydro-15H-isoxazolo[4′,5′:5,6]benzo[1,2-p]pyrido[2,1-f][1]oxa[4,7,10,14]tetraazacycloheptadecine-8-carboxamide] | 0.173 | 178
14 | Cc1noc2c3c(ccc12)OC[C@@H](Cc1ccccc1)NC(=O)[C@@H]1CCCCN1C(=O)[C@H](CC(C)C)N(C)C(=O)C[C@@H](C(=O)NCCc1c(F)cccc1F)NC3=O [Example 635, (8S,12S,18aS,21R)-21-benzyl-N-(2,6-difluorophenethyl)-12-isobutyl-3,11-dimethyl-6,10,13,19-tetraoxo-6,7,8,9,10,11,12,13,16,17,18,18a,19,20,21,22-hexadecahydro-15H-isoxazolo[4′,5′:5,6]benzo[1,2-p]pyrido[2,1-f][1]oxa[4,7,10,14]tetraazacycloheptadecine-8-carboxamide] | 0.404 | 112
15 | CC(C)C[C@H]1C(=O)N2CCCC[C@@H]2C(=O)N[C@H](Cc2ccccc2)COc2cnc3ccc(F)cc3c2C(=O)N[C@H](C(=O)NCCc2c(F)cccc2F)CC(=O)N1C [Example 636, (9S,13S,19aR,22R)-22-benzyl-N-(2,6-difluorophenethyl)-5-fluoro-13-isobutyl-12-methyl-7,11,14,20-tetraoxo-7,8,9,10,11,12,13,14,17,18,19,19a,20,21,22,23-hexadecahydro-16H-pyrido[2′,1′:6,7][1]oxa[4,7,10,14]tetraazacycloheptadecino[17,16-c]quinoline-9-carboxamide] | 0.091 | 276
16 | CC(C)C[C@H]1C(=O)N2CCCC[C@@H]2C(=O)N[C@H](Cc2ccccc2)COc2cnc3ccc(F)cc3c2C(=O)N[C@H](C(=O)NCCc2noc(C3CC3)n2)CC(=O)N1C [Example 637, (9S,13S,19aR,22R)-22-benzyl-N-(2-(5-cyclopropyl-1,2,4-oxadiazol-3-yl)ethyl)-5-fluoro-13-isobutyl-12-methyl-7,11,14,20-tetraoxo-7,8,9,10,11,12,13,14,17,18,19,19a,20,21,22,23-hexadecahydro-16H-pyrido[2′,11:6,7][1]oxa[4,7,10,14]tetraazacycloheptadecino[17,16-c]quinoline-9-carboxamide] | 0.106 | 300
